In US9061994B1, “Materials and methods useful to induce vacuolization, cell death, or a combination thereof” (The University of Toledo, priority 2011, dated 2015):
“Also recorded” adds a separate entry of the source. Read-outs that look alike come from different tables or passages of the source.

What was measured:
U251 glioblastoma cells [1] = assay: MTT cell viability assay; assay type: cell-based, human; conditions: for IC50: Homo sapiens, U-251, 48 h
U251 glioblastoma cells [2] = assay: ATP level (CellTiter Glo); assay type: cell-based, human; conditions: second day after addition of MIPP (FIG. 13)
Excerpt: To compare the levels of ATP in MIPP-treated glioblastoma cells versus controls treated with an equivalent volume of DMSO, the cells were harvested by trypsinization and assayed using the CellTiter Glo kit from Promega according to the manufacturer's instructions.

U251 glioblastoma cells [3] = assay: Colony-forming assay; assay type: cell-based, human; conditions: cells treated for 2 days (FIGS. 15, 40)
U251 glioblastoma cells [4] = assay: Cell morphology / vacuolization by phase-contrast microscopy; assay type: cell-based, human
[5] = tested on: temozolomide-resistant U251 cells (U251-TR); assay: MTT cell viability assay, temozolomide-resistant cells; assay type: cell-based, human
active Rab5 = assay: Pull-down assay for active Rab5; assay type: cell-based, human; conditions: U251; 10 μM; 4 h and 24 h
Experimental: (§1) GST-fusion proteins were produced in E. coli BL21 (DE3) pLysS and the fusion proteins were bound to glutathione-sepharose 4B beads. Pull-down assays for active Rab5 using the GST-Rabaptin-5 beads were performed. Assays for active Rab7 were performed. For each determination cell lysates were prepared from ten pooled 10 cm cultures. Monoclonal antibodies against Rab5 or Rab7 were used to probe western blots of the proteins collected on the beads. Results were quantified and normalized as described above for Rac1 and Arf6.

U251-TR cells = assay: Colony-forming assay, temozolomide-resistant cells; assay type: cell-based, human; conditions: 10 μM MIPP, 2 days (FIG. 21)
Experimental: (§2) For colony-forming assays, cells were plated in 100 mm dishes at 2,500 (U251 and U251-TR) or 1,500 (all other cell lines) cells per dish. Beginning on the day after plating, the cells were exposed to 10 μM MIPP for 2 days, with the medium and drug replenished after 1 day. The cells were fed fresh medium without drug every 2 to 3 d for a period of 10-21 days. To visualize the colonies, the dishes were washed with PBS, fixed for 10 min with ice-cold 100% methanol, and stained with 1% crystal violet in 35% methanol. After 2-3 washes with water, colonies containing at least 50 cells were counted using a dissecting microscope or a Protocol 2 colony counter.

active Rac1 = assay: Pull-down assay for activated Rac1; assay type: cell-based, human; conditions: U251; 10 μM MIPP; 4 h or 24 h
Experimental: (§3) Assays for activated Rac1 and Arf6 were performed using EZ-Detect Rac1 or Arf6 activation kits. These assays employ either a GST-fusion protein containing the p21-binding domain of p21-activated protein kinase 1 (PAK1) to selectively bind active Rac1 in whole cell lysates, or GST-GGA3 (Golgi-associated gamma adaptin ear-containing Arf binding protein 3) to pull down active Arf6. The active Rac1 or Arf6 collected on the glutathione beads were subjected to western blot analysis and the chemiluminescence signals were quantified using Alpha Innotech FluorChem HD2 imaging system. The values for active protein in each sample were normalized to α-tubulin. Results were expressed as either the total active Rac1 or Arf6, or the ratio of the active GTPase to the total Rac1 or Arf6 measured in aliquots of the cell lysate.

active Rab7 = assay: Pull-down assay for active Rab7; assay type: cell-based, human; conditions: U251; 10 μM; up to 24 h
Experimental: as §1

active Arf6 = assay: Pull-down assay for activated Arf6; assay type: cell-based, human; conditions: U251; 10 μM MIPP; 4 h or 24 h
Experimental: as §3

[6] = MTT cell viability assay, normal fibroblasts; assay type: cell-based; conditions: human, normal skin fibroblasts, 10 μM MIPP (FIG. 27), read-out: reduction in cell viability
[7] = tested on: LN229, U2OS, MCF7, SW480 and PANC-1 cancer cell lines; assay: Colony-forming assay, other cancer cell lines; assay type: cell-based, human; conditions: exposure for 2 days (FIG. 28)
Experimental: as §2
Also disclosed herein is an analysis of the effects of the compound in several other cell lines. These include an additional glioma cell line (LN229), osteosarcoma cells (U2OS), and breast (MCF7), colon (SW480) and pancreatic (PANC-1) carcinoma cells. Similar to the results with U251 cells, 10 μM MIPP induced dramatic cytoplasmic vacuolization in all of the cell lines, as shown in FIG. 26.

[8] = tested on: LN229, U2OS, MCF7, SW480 and PANC-1 cancer cell lines; assay: MTT cell viability assay, other cancer cell lines; assay type: cell-based; conditions: Homo sapiens; 10 μM MIPP; all of the cancer cell lines (FIG. 27); read-out: reduction of relative cell viability
[9] = MTT cell viability assay, mammary epithelial cells; assay type: cell-based; conditions: human, MCF-10A mammary epithelial cells, 10 μM MIPP (FIG. 27), read-out: reduction in cell viability

## Cc1[nH]c2ccccc2c1C=CC(=O)c1ccncc1 [MIPP, 3-(2-methyl-1H-indol-3-yl)-1-(4-pyridinyl)-2-propen-1-one]
U251 glioblastoma cells [1]; U251, two days, medium and compound replenished after the first day (FIG. 37D), read-out: IC50 (cell viability)
  IC50: 4.8 µM
U251 glioblastoma cells [1]; parental U251, MTT dose-response over a 2-day period (FIG. 20), read-out: IC50, parental cells
  IC50: 3.5 µM
U251 glioblastoma cells [1]; U251, 10 μM, first two days of treatment (FIG. 12)
  relative cell viability, in words: marked decrease in the relative cell viability
U251 glioblastoma cells [2]
  ATP level: significant decrease in ATP
U251 glioblastoma cells [3]
  colony formation: non-viable in colony-forming assays; also recorded: reduced colony formation
U251 glioblastoma cells [4]; 1 μM
  cell morphology / vacuolization: behaved similarly to Compound I when tested at 1 μM
U251 glioblastoma cells [4]; 10 μM
  cell morphology / vacuolization: induced vacuoles that were larger and more numerous than those induced by Compound I
[5]; FIGS. 41A-41B
  methuosis and cell viability in TMZ-resistant cells, in words: induced methuosis and reduced cell viability in the TMZ-resistant cells
[5]; Homo sapiens, U-251, 48 h, U251-TR, MTT dose-response over a 2-day period (FIG. 20)
  IC50: 6 µM
Active Rab5
  amount of active Rab5: striking decline in the amount of active Rab5
U251-TR cells
  survival (colony formation): significant decline in survival
Active Rac1
  amount of active Rac1: no significant effects
Active Rab7
  amount / activation state of active Rab7: more than doubling by 24 h
Active Arf6
  amount of active Arf6: no significant effects
[6]
  cytotoxicity at 10 μM: 40%
[7]
  long-term cell survival (colony formation): significantly reduced long-term cell survival in all cases
[8]
  cytotoxicity at 10 μM: 50 to 90%
[9]
  cytotoxicity at 10 μM: 30%
